The target in the experiment is Glucose-6-phosphate dehydrogenase (Bos taurus) (UniProt Q5EM56). Kind of experiment: Percent inhibition against bovine adrenal G6PDH (glucose-6-phosphate dehydrogenase) at a concentration of 10 e-5 M.
Sequence of Glucose-6-phosphate dehydrogenase (Bos taurus) (Q5EM56 as listed by the source): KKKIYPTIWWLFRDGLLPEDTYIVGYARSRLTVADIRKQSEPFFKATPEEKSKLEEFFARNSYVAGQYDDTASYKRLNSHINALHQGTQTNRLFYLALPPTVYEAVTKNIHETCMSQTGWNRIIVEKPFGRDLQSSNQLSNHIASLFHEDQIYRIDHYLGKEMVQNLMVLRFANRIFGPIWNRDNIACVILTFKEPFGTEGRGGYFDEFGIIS
A word on the inhibition: it is the drop in the measured response relative to a control, in per cent. With `C=C=CS(=O)(=O)[C@H]1CC[C@@]2(C)C(=CCC3C2CC[C@]2(C)C(=O)CCC32)C1` (stereo not given in full), the inhibition worked out at 15%. Regarding `C#CCS[C@H]1CC[C@@]2(C)C(=CCC3C2CC[C@]2(C)C(=O)CCC32)C1` (stereo not given in full), the inhibition came out at 47%. Under `C#CC[S+]([O-])[C@H]1CC[C@@]2(C)C(=CCC3C2CC[C@]2(C)C(=O)CCC32)C1` (stereo not given in full) stands below 5%. Under `C#CCS(=O)(=O)[C@H]1CC[C@@]2(C)C(=CCC3C2CC[C@]2(C)C(=O)CCC32)C1` (stereo not given in full) stands 20%. Under `C=C=C[S+]([O-])[C@H]1CC[C@@]2(C)C(=CCC3C2CC[C@]2(C)C(=O)CCC32)C1` (stereo not given in full) stands below 5%.

These data come from ChEMBL document CHEMBL1126227, “The synthesis and reactivity of ,-acetylenic and allenic sulfoxides and sulfones of dehydroepiandrosterone and their reactions with 1-butanethiol and glucose-6-phosphate dehydrogenase” (Bioorg Med Chem Lett, 1992).
